Residues, ends and D or L forms follow the SMILES beside them.

One test deals with nACE. More on the design: method as in PMID 25053098. Conditions: cited from earlier work.
The target in a further test is cACE. More on the design: method as in PMID 25053098. Conditions: cited from earlier work.
In the next test the test system is ACE. Set-up: method as in doi:10.1007/s00217-013-2014-x. The conditions noted are these: inhibition of ACE activity; cited from earlier work.
The target in the next test is T1, AnCE (Drosophila melanogaster, UniProt Q10714).
T1 construct: made in house; host or cells: Pichia pastoris GS115 (vector pPiC9), purified from the culture supernatant
T1 sequence (Q10714 18-615): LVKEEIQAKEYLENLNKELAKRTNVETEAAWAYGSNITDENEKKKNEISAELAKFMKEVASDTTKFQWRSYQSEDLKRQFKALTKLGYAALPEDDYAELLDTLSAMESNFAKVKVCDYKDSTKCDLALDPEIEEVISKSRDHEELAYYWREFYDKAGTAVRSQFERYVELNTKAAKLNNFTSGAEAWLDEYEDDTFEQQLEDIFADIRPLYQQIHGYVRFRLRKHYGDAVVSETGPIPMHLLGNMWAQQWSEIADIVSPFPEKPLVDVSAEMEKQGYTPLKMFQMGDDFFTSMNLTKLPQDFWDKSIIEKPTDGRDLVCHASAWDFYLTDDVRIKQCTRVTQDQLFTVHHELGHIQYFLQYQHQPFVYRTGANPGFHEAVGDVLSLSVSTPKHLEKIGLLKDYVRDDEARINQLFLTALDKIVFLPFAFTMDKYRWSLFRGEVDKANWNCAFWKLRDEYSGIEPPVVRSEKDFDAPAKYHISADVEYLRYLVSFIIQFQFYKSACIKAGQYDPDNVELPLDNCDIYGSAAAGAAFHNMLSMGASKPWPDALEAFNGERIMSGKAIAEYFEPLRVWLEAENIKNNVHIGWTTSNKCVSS
In words: Inhibition of AnCE activity, fluorogenic Abz-FRK(Dnp)-P substrate assay. It counts as biochemical. Conditions: for IC50: AnCE 25 ng, substrate Abz-FRK(Dnp)-P, pH 7.5, 20 °C, 10 min pre-incubation with inhibitor; for Ki: AnCE. As to the method:
Enzyme assays were performed using the internally quenched fluorogenic peptide Abz-FRK(Dnp)-P (Enzo Life Sciences Ltd., Exeter, UK) as a substrate for 25 ng of AnCE in 200 µL of 100 mM HEPES buffer pH 7.5 with 50 mM NaCl and 10 µM ZnCl2. The reaction was started by adding 2 µL of 5 mM Abz-FRK(Dnp)-P in dimethyl sulfoxide to the buffer in wells of a 96-well black plastic plate (Corning Life Sciences, High Wycombe, UK), and the release of fluorescence on hydrolysis of the substrate was monitored continuously at 20 °C using a FLUOstar Omega (BMG Labtech GmbH, Offenburg, Germany) with λex at 340 nm and λem set at 430 nm. For studying the effect of dipeptide inhibitors, the enzyme in the assay buffer was pre-incubated with inhibitor for 10 min prior to the addition of the substrate. IC50 values were determined using the non-linear regression curve-fitting software [log(inhibitor) vs. response] of GraphPad Prism 7.01 (GraphPad Software, San Diego, CA, USA). The coefficient of determination (R^2) values for the regression model ranged from 0.9852 to 0.9629. Ki values were obtained using the Cheng–Prusoff equation and a substrate Km of 14.24 µM, obtained using non-linear regression curve-fitting software (Michaelis–Menten) of GraphPad Prism 7.01. The R^2 for the Km determination was 0.9787 [31].

The mark [1] stands for this setting: from IC50 by Cheng–Prusoff equation, substrate Km 14.24 µM.

For `CC[C@H](C)[C@H](N)C(=O)N[C@@H](Cc1c[nH]c2ccccc12)C(=O)O` [IW], the Ki (as a rule, the equilibrium dissociation constant of an inhibitor or competing ligand from its target) was 59.6 µM on nACE, 1.6 µM on cACE and 80 µM at AnCE (setting [1]). For the same compound, the IC50 – broadly, the concentration needed to halve the response being measured – with ACE was 0.7 µM; on AnCE, 340 µM.

`NC(N)=NCCC[C@H](N)C(=O)N[C@@H](Cc1c[nH]c2ccccc12)C(=O)O` [RW] (H-Arg-Trp-OH) registered an IC50 against AnCE of 880 µM. The compound also showed a Ki at AnCE (values restated in µM in the text) of 200 µM.

Regarding `CC(C)[C@H](N)C(=O)N[C@@H](Cc1c[nH]c2ccccc12)C(=O)O` [VW] (H-Val-Trp-OH), the Ki at nACE was 152 µM; on cACE it was 2.1 µM; at AnCE (setting [1]), 170 µM. Besides, on AnCE, the IC50 was 780 µM.

Turning to `N=C(N)NCCC[C@H](NC(=O)[C@@H](N)Cc1c[nH]c2ccccc12)C(=O)O` [WR] (H-Trp-Arg-OH), in the test with cACE, the “inhibition of cACE (in words)” value is listed as “poor inhibitors”. Further, on AnCE, the IC50 was 3780 µM. The same compound showed a Ki on AnCE (setting [1]) of 840 µM.

For `N[C@@H](Cc1ccc(O)cc1)C(=O)N[C@@H](Cc1c[nH]c2ccccc12)C(=O)O` [YW] (H-Tyr-Trp-OH), the “inhibition of cACE (in words)” value in the test with cACE is “poor inhibitors”. In addition, half-maximal inhibition on AnCE (IC50) required 3400 µM. For the same compound, the Ki at AnCE (setting [1]) turned out to be 750 µM.
